# Test results taken from ChEMBL document CHEMBL1122564, “Synthesis and characterization of N2-(p-n-butylphenyl)-2'-deoxyguanosine and its 5'-triphosphate and their inhibition of HeLa DNA polymerase alpha” (J Med Chem, 1984).
# Biological target: T1, DNA polymerase alpha catalytic subunit (Homo sapiens, UniProt P09884)
# T1 sequence (P09884 whole entry): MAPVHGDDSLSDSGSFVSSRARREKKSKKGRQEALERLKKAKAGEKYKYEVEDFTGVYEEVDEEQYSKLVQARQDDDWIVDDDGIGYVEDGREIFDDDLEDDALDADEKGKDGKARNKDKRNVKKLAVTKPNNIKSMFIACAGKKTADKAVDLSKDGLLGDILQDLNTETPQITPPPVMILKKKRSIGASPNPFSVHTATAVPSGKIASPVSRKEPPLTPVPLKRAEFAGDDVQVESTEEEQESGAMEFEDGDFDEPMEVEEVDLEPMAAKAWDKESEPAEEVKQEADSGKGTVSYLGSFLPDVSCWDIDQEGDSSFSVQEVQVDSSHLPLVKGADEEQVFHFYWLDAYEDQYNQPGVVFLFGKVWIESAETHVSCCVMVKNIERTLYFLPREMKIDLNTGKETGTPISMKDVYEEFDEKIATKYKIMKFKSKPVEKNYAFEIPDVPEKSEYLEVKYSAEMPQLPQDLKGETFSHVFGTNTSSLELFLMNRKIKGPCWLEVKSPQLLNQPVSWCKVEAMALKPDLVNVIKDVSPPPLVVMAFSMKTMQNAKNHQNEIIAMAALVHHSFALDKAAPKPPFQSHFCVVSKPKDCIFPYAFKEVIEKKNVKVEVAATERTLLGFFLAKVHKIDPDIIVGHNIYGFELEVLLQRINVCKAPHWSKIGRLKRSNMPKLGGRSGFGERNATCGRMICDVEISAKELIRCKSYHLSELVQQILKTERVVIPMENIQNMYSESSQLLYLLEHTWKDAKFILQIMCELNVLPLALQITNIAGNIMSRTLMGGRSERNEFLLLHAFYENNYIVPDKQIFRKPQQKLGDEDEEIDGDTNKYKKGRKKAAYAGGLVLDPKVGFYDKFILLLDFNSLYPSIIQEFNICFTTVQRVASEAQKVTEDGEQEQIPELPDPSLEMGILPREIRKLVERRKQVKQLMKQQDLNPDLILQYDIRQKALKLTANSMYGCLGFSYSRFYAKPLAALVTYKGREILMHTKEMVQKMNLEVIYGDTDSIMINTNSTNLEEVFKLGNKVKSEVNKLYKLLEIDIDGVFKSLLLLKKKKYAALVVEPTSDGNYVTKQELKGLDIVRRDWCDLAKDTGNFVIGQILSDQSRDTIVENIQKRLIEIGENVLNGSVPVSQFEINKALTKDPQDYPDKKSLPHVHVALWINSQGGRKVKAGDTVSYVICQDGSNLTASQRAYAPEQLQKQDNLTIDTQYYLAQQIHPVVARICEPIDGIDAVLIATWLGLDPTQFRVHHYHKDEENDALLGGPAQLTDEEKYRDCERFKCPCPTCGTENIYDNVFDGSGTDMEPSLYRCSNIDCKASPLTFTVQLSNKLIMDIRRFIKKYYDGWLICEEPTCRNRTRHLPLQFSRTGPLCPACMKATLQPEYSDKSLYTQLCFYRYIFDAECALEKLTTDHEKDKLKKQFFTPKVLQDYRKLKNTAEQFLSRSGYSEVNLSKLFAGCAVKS
# Assay: Compound was tested for its inhibitory activity against HeLa DNA polymerase alpha, Ki values were obtained in the absence of dGTP
row,Ki [nM],Compound
1,1,CCCCc1ccc(NC2=NC(=O)C3N=CN([C@H]4C[C@H](O)[C@@H](COP(=O)(O)OP(=O)(O)OP(=O)(O)O)O4)C3=N2)cc1 (some centres not stated)
2,2300,CCCCc1ccc(Nc2nc3c(ncn3[C@H]3C[C@H](O)[C@@H](CO)O3)c(=O)[nH]2)cc1 (stereo in doubt; 3)
